Values after ≈ are worked out from the molar mass of the structure shown. Where two headings read alike, the source gives them in different places.
Assays:
Sa-ClpP [1] = molecular target: T1, Sa-ClpP (Staphylococcus aureus, UniProt Q2G036); test: ClpP activation, EnzCheck Protease Assay with Bodipy-FL casein (second described method); type: biochemical, S. aureus
T1 construct: made in house; host or cells: E. coli BL21 (DE3)
Protocol: Alternatively, the assay was carried out using EnzCheck Protease Assay (Molecular Probes, Catalog #E6638). The assay was performed in black 384 well, flat bottom, low volume plates (Greiner Bio-One, Monroe, N.C., catalog #784076). 10 μL of Tris.HCl buffer, pH 8.0 with 0.01% Triton X-100 was pipetted into each well using a Well-Mate (Thermo Scientific, Waltham, Mass.). 0.4 μL test compounds or controls (2% DMSO v/v) were added to each well using a Biomek FX liquid handling robot (Beckman Coulter, Indianapolis Ind.). After addition of test compounds and controls, 10 μL of master mix containing 2 μM Sa-ClpP and 2 μM substrate (Bodipy-FL labeled casein) in Tris*HCl buffer, pH 8.0 with 0.01% (v/v) Triton X-100, was pipetted into each well. All assays were performed in triplicate, under linear velocity conditions. Increase in fluorescent signal following activation of Sa-ClpP by test compounds and controls was measured over time period of 30 mins using filters with excitation at 485±15 nm and emission at 520±25 nm on a PHERAstar FS Multilabel reader (BMG, Cary, N.C.). […] Data analysis was done by measuring rate of casein degradation over time (slopes). Computed degradation rates (slopes) were normalized to positive (ADEP4) or negative (DMSO) controls. Using nonlinear regression curve fitting EC50 values and % activation were determined using the equation “log [agonist]vs. Response-variable slope (four parameters)-symmetrical” in the program Prism 6 (GraphPad Software, La Jolla, Calif. USA, www.graphpad.com).

Sa-ClpP [2] = molecular target: T1, Sa-ClpP; test: ADEP displacement fluorescence polarization assay; type: binding, S. aureus
Protocol: A fluorescence polarization (FP) assay was used to determine the activity of the disclosed compounds in displacing an ADEP analogue from ClpP. Briefly, the assay was performed in black 384 well, flat bottom, low volume plates (Greiner Bio-One, Monroe, N.C., catalog #784076). 20 μL of a pre-equilibrated (1 hr, room temperature) master mix (1 μM Sa-ClpP, 2% DMSO (v/v) and 50 nM FP probe in Tris*HCl, pH 8.0)) was pipetted into each well using a Well-Mate (Thermo Scientific, Waltham, Mass.). Sa-ClpP was prepared as described above for the ClpP activation assay. The FP probe was ADEP 2591 (structure shown above). The ADEP 2591 comprises a TAMRA fluorophore linked to a core based on modified ADEP 2378 via a short alkyl linker. Using pin transfer, approximately 0.4 μL (2% v/v DMSO) of each compound or control was added per well. After addition of compounds and controls, plates were allowed to incubate for an additional 120 minutes at room temperature. All assays were performed in triplicate. Polarization was monitored using an EnVision Multilabel reader (Perkin-Elmer, Waltham, Mass.) by exciting the FP probe at 530±25 nm, and monitoring fluorescence intensity of both parallel and perpendicular polarized light at 579±25 nm. Readout was in millipolarization units (mP).
Signal gain and G factors were determined in wells containing 20 μM ADEP 2378, which had been previously verified (data not shown) as containing completely unbound ADEP 2591. Data collected was normalized to values obtained from positive (20 μM ADEP 2378) or negative (DMSO) controls. Curves were fit with non-linear regression using the equation “log [inhibitor]vs. Response-variable slope (four parameters)-symmetrical” in the program Prism 6 (GraphPad Software, La Jolla, Calif. USA, www.graphpad.com). The structures for ADEP 2378 and ADEP 2591 are shown above. ADEP 2378 is (E)-N-((S)-1-(((2R,6S,8aS,14aS,20S,23aS)-2,6-dimethyl-5,8,14,19,23-pentaoxooctadecahydro-1H,5H,14H,19H-pyrido[2,1-i]dipyrrolo[2,1-c:2′,1′-1][1]oxa[4,7,10,13]tetraazacyclohexadecin-20-yl)amino)-1-oxo-3-phenylpropan-2-yl)pent-2-enamide. ADEP 2591 is 5-(3-(3-((6S,9S,11aS,17S,20aS)-6,10-dimethyl-5,8,11,16,20-pentaoxo-17-((S)-2-((E)-pent-2-enamido)-3-phenylpropanamido)hexadecahydro-1H,5H,16H-dipyrrolo[2,1-c:2′,1′-1][1]oxa[4,7,10,13]tetraazacyclohexadecin-9-yl)propyl)thioureido)-2-(6-(dimethylamino)-3-(dimethyliminio)-3H-xanthen-9-yl)benzoate.

S. aureus USA 300 ΔClpP = test: Minimal inhibitory concentration, microbroth dilution; type: cell-based, Staphylococcus aureus; details: ClpP inactivated strain
Protocol: (§1) Minimal inhibitory concentrations (“MICs”) were determined using the microbroth dilution method according to Clinical Laboratory Standards Institute (CLSI; National, C.F. C. L. S., Methods for Dilution Antimicrobial Susceptibility Tests for Bacteria Grow aerobically-Seventh Edition: Approved Standard M7-A7, CLSI, Wayne, Pa., USA, 2008) and were read by visual inspection. Two fold serial dilutions of test compound in 100 μL of the appropriate broth media were first prepared in 96-well round bottom microtiter plates (Nalgene Nunc International, Rochester, N.Y., USA). An equivalent volume (100 μL) of bacterial broth inocula containing approximately 10^5 bacterial cfu/mL was added to each well to give final concentrations of test compound starting at 200 μM. The plates were then incubated aerobically at 37° C. All strains were incubated overnight. After incubations, in all cases the MIC was recorded as the lowest concentration of drug that prevented bacterial growth. The bacterial strains for which MIC was determined as described in Table 4.

S. pneumoniae R6 = test: as above; type: cell-based
Protocol: (§2) Minimal inhibitory concentrations (“MICs”) were determined using the microbroth dilution method according to Clinical Laboratory Standards Institute (CLSI; National, C.F. C. L. S., Methods for Dilution Antimicrobial Susceptibility Tests for Bacteria Grow aerobically-Seventh Edition: Approved Standard M7-A7, CLSI, Wayne, Pa., USA, 2008) and were read by visual inspection. Two fold serial dilutions of test compound in 100 μL of the appropriate broth media were first prepared in 96-well round bottom microtiter plates (Nalgene Nunc International, Rochester, N.Y., USA). […] The plates were then incubated aerobically at 37° C. All strains were incubated overnight. After incubations, in all cases the MIC was recorded as the lowest concentration of drug that prevented bacterial growth. The bacterial strains for which MIC was determined as described in Table 4.

S. pyogenes ATCC 700294 = test: as above; type: cell-based; details: Streptococcus pyogenes, ATCC700294, read-out: Minimal Inhibitory Concentration S. pyogenes ATCC 700294
Protocol: as §2

B. subtilis ATCC 23857 = test: as above; type: cell-based; details: Bacillus subtilis, ATCC23857, read-out: Minimal Inhibitory Concentration B. subtilis ATCC 23857
Protocol: as §1

S. aureus ATCC 29213 = test: as above; type: cell-based; details: Staphylococcus aureus, ATCC29213, read-out: Minimal Inhibitory Concentration S. aureus ATCC 29213
Protocol: as §1

[3] = Cytotoxicity assay, CellTiter-Glo cell viability; type: cell-based; details: African green monkey
Protocol: Cytotoxicity was determined by determining the effect of compounds on cell viability. Vero (kidney epithelial cells; ATCC CCL-81) monolayers were trypsinized and 5000 cells/well were seeded (10-15% confluency) into white-wall, flat bottom 96 well microwell plates (Corning) using enriched Dulbecco's Modified Eagle's Medium (Hyclone: DMEM/High Glucose) containing 10% Fetal Bovine Serum (ATCC-30-2020). Plates were incubated overnight at 37° C. in the presence of 5% CO2. Drug-free media was then replaced with media containing serial dilutions of test compound or DMSO carrier. After an additional 72 hours of incubation, viability was indirectly measured using the CellTiter-Glo® Luminescent Cell Viability (Promega) assay. Assay plates were read at peak emission wavelength of 560 nm using a EnVision® Multilabel Plate Reader (Perkin Elmer) or PHERAstar FS Multilabel reader (BMG, Cary, N.C.). […] USA, www.graphpad.com]. For each experiment, compounds were tested in duplicate. IC50 values presented are the range of two biologically independent experiments.

[4] = read-out: ClpP Activation EC50 (converted)
[5] = 1 μM Sa-ClpP, 50 nM FP probe ADEP 2591, read-out: ADEP Displacement IC50
[6] = Streptococcus pneumoniae, R6, read-out: Minimal Inhibitory Concentration S. pneumoniae R6
[7] = Streptococcus pneumoniae, R6; read-out: Minimal Inhibitory Concentration S. pneumoniae R6

T1 sequence (Q2G036 whole entry): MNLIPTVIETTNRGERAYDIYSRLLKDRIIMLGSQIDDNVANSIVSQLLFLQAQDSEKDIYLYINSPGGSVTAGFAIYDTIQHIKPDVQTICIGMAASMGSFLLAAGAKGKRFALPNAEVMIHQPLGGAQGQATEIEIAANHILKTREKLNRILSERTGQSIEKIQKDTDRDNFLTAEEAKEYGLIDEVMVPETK

Structure (SMILES)	EC50 (Sa-ClpP [1]; [4])	IC50 (Sa-ClpP [2]; [5])	Minimal Inhibitory Concentration S. aureus USA 300 ΔClpP (S. aureus USA 300 ΔClpP)	MIC (S. pneumoniae R6; [6])	MIC (S. pyogenes ATCC 700294)	MIC (B. subtilis ATCC 23857)	MIC (S. aureus ATCC 29213)	IC50 at 72 h ([3]; Vero cells, 72 hours, read-out: Cytotoxicity IC50)	EC50 (Sa-ClpP [1])	IC50 (Sa-ClpP [2])	IC50 at 72 h ([3]; Vero kidney epithelial cells (ATCC CCL-81), Vero cells, 72 hours, read-out: Cytotoxicity IC50)	MIC (S. pneumoniae R6; [7])	IC50 at 72 h [3]
Cc1ccc(NC(=O)N[C@@H](Cc2cc(F)cc(F)c2)C(=O)N[C@H]2COC(=O)C3C[C@H](F)CN3C(=O)[C@H](C)NC(=O)C3CCCCN3C(=O)C3CCCN3C2=O)cc1 (stereo partly drawn) [Compound 50, (S)-3-(3,5-Difluorophenyl)-N-((2S,6S,8aS,14aS,20S,23aS)-2-Fluoro-6-Methyl-5,8,14,19,23-Pentaoxooctadecahydro-1H,5H,14H,19H-Pyrido[2,1-I]Dipyrrolo[2,1-C:2′,1′-L][1]Oxa[4,7,10,13]Tetraazacyclohexadecin-20-Yl)-2-(3-(P-Tolyl)Ureido)Propanamide]	0.9 ± 0.07 µM	7.66 ± 0.2 µM	>200 µM	0.8 µM (≈ 0.638 µg/mL)	1.6 µM (≈ 1.28 µg/mL)	> 200 µM	3.1 µM (≈ 2.47 µg/mL)	–	–	–	–	–	–
Cc1ccc(NC(=O)N[C@@H](Cc2cc(F)cc(F)c2)C(=O)N[C@H]2COC(=O)C3C[C@H](C)CN3C(=O)[C@H](C)NC(=O)C3CCCCN3C(=O)C3CCCN3C2=O)cc1 (stereo partly drawn) [Compound 45, (S)-3-(3,5-Difluorophenyl)-N-((2S,6S,8aS,14aS,20S,23aS)-2,6-Dimethyl-5,8,14,19,23-Pentaoxooctadecahydro-1H,5H,14H,19H-Pyrido[2,1-I]Dipyrrolo[2,1-C:2′,1′-L][1]Oxa[4,7,10,13]Tetraazacyclohexadecin-20-Yl)-2-(3-(P-Tolyl)Ureido)Propanamide]	0.54 ± 0.03 µM	6.62 ± 0.2 µM	100 µM	0.1 µM (≈ 0.0794 µg/mL)	0.4 µM (≈ 0.318 µg/mL)	–	0.4 µM (≈ 0.318 µg/mL)	56.8 ± 6.7 µM	–	–	–	–	–
C[C@H]1CC2C(=O)OC[C@H](NC(=O)[C@H](Cc3ccccc3)NC(=O)Nc3ccc(OC(F)(F)F)cc3)C(=O)N3CCCC3C(=O)N3CCCCC3C(=O)N[C@@H](C)C(=O)N2C1 (stereo partly drawn) [Compound 44, (S)—N-((2S,6S,8aS,14aS,20S,23aS)-2,6-Dimethyl-5,8,14,19,23-Pentaoxooctadecahydro-1H,5H,14H,19H-Pyrido[2,1-I]Dipyrrolo[2,1-C:2′,1′-L][1]Oxa[4,7,10,13]Tetraazacyclohexadecin-20-Yl)-3-Phenyl-2-(3-(4-(Trifluoromethoxy)Phenyl)Ureido)Propanamide]	–	–	50 µM	–	–	–	–	–	0.28 ± 0.01 µM	6.76 ± 0.3 µM	83.8 ± 6.6 µM	0.1 µM (≈ 0.0828 µg/mL)	–
C[C@@H]1CC2C(=O)O[C@@H](C)[C@H](NC(=O)[C@H](Cc3cc(F)cc(F)c3)NC(=O)Nc3ccc(OC(F)(F)F)cc3)C(=O)N3CCCC3C(=O)N3CCCCC3C(=O)N[C@@H](C)C(=O)N2C1 (stereo partly drawn) [Compound 40, (S)-3-(3,5-Difluorophenyl)-2-(3-(4-(Trifluoromethoxy)Phenyl)Ureido)-N-((2R,6S,8aS,14aS,20S,21S,23aS)-2,6,21-Trimethyl-5,8,14,19,23-Pentaoxooctadecahydro-1H,5H,14H,19H-Pyrido [2,1-I]Dipyrrolo[2,1-C:2′,1′-L][1]Oxa[4,7,10,13]Tetraazacyclohexadecin-20-Yl)Propanamide]	–	–	25 µM	–	–	–	–	–	0.36 ± 0.03 µM	12.7 ± 0.7 µM	–	0.1 µM (≈ 0.0878 µg/mL)	43.8 ± 5.1 µM
CCc1ccc(NC(=O)N[C@@H](Cc2cc(F)cc(F)c2)C(=O)N[C@@H]2C(=O)N3CCCC3C(=O)N(C)[C@@H](C)C(=O)N[C@@H](C)C(=O)N3CCCC3C(=O)O[C@H]2C)cc1 (stereo partly drawn) [Compound 29, (2S)-3-(3,5-Difluorophenyl)-2-(3-(4-Ethylphenyl)Ureido)-N-((6S,9S,11aS,17S,18S)-6,9,10,18-Tetramethyl-5,8,11,16,20-Pentaoxohexadecahydro-1H,5H,16H-Dipyrrolo[2,1-C:2′,1′-L][1]Oxa[4,7,10,13]Tetraazacyclohexadecin-17-Yl)Propanamide]	–	–	100 µM	–	–	–	–	–	0.25 ± 0.02 µM	5.9 ± 0.2 µM	–	0.031 µM (≈ 0.0242 µg/mL)	26.8 ± 1.3 µM
